System: male Swiss Webster mice, phenylquinone-induced writhing
Assay: Phenylquinone (PQ) writhing assay, % inhibition (Swiss Webster mice)
Format: in vivo
Details: Mus musculus, standard, read-out: % Inhibition of Writhing Response

| Compound | inhibition at 1 mg/kg (1 mg/kg) | inhibition at 3 mg/kg (3 mg/kg) |
| --- | --- | --- |
| C[C@@H]1C[C@H]2[C@@H]3CCC4=CC(=O)C=C[C@]4(C)[C@@]3(F)[C@@H](O)C[C@]2(C)[C@@]1(O)C(=O)CO [Dexamethasone] | 62% |  |
| COc1ccc2c(c1)c(CC(=O)O)c(C)n2C(=O)c1ccc(Cl)cc1 [Indomethacin] |  | 93% |

From patent US6835754B2, “Use of aryl nitrone compounds in methods for treating neuropathic pain” (Renovis, Inc., priority 2001, dated 2004)
